Positions of bridges follow the written chain, without caps; N, C: chain ends. Residues, ends and D or L forms follow the SMILES beside them. Chains are numbered I, II in the order given.
Key:
KLPN 8852 [1] = test: MIC of antibiotics alone against KLPN 8852 (Table 1); type: cell-based, Klebsiella pneumonia; conditions: MIC dil in Full strength MHB, antibiotic alone
Method: (§1) KLPN 8852, 27025 and 24076 are carbapenemase resistant (“CRE”) strains of the common bacteria, KLPN, Klebsiella pneumonia. […] The ability of amikacin as well as three carbapenem antibiotics (meropenem, imipenem, and doripenem) to kill each of these strains was tested using minimum inhibitory concentration, or MIC, as a measure of effectiveness.

ACBA 1010 [2] = test: MIC of antibiotics alone against ACBA 1010 (Table 1); type: cell-based, Acinetobacter baumannii; conditions: MIC dil in Full strength MHB, antibiotic alone
KLPN 27025 [3] = test: MIC of antibiotics alone against KLPN 27025 (Table 1); type: cell-based, Klebsiella pneumonia; conditions: MIC dil in Full strength MHB, antibiotic alone
Method: as §1

KLPN 24076 [4] = test: MIC of antibiotics alone against KLPN 24076 (Table 1); type: cell-based, Klebsiella pneumonia; conditions: MIC dil in Full strength MHB, antibiotic alone
Method: as §1

ACBA 1010 [5] = test: microbe, parasite or virus in culture; type: cell-based, Acinetobacter baumannii; conditions: for Synergy MIC / MIC: ACBA 1010; for MIC: Acinetobacter baumannii, agent alone, read-out: Monotherapy MIC
Method: (§2) The ability of B2088 [RGRKVVRR)2KK] to kill strain ACBA 1010 was tested by itself (as a monotherapy), as well as in combination with one of meropenem, imipenem, or doripenem (as a combination therapy) using minimum inhibitory concentration, or MIC, as a measure of effectiveness. Synergism MIC indicates the MIC of each of B2088 or the carbapenem antibiotic when used as an antibacterial composition.

KLPN 27025 [6] = test: microbe, parasite or virus in culture; type: cell-based, Klebsiella pneumonia; conditions: for Synergy MIC / MIC: KLPN 27025; for MIC: Klebsiella pneumoniae, agent alone, read-out: Monotherapy MIC
Method: as §2, with “each of CRE strains KLPN 8852, 27025 and 24076” for “strain ACBA 1010”

KLPN 8852 [7] = test: microbe, parasite or virus in culture; type: cell-based, Klebsiella pneumonia; conditions: for Synergy MIC / MIC: KLPN 8852; for MIC: Klebsiella pneumoniae, agent alone, read-out: Monotherapy MIC
Method: as §2, with “each of CRE strains KLPN 8852, 27025 and 24076” for “strain ACBA 1010”

KLPN 24076 [8] = test: microbe, parasite or virus in culture; type: cell-based, Klebsiella pneumonia; conditions: for Synergy MIC / MIC: KLPN 24076; for MIC: Klebsiella pneumoniae, agent alone, read-out: Monotherapy MIC
Method: as §2, with “each of CRE strains KLPN 8852, 27025 and 24076” for “strain ACBA 1010”

[9] = MIC of each agent in combination B2088 + Doripenem
[10] = MIC of each agent in combination B2088 + Imipenem
[11] = MIC of each agent in combination B2088 + Meropenem

Row | Structure (SMILES) | Synergy MIC (ACBA 1010 [5]; [10]) [µg/mL] | Synergy MIC (KLPN 27025 [6]; [10]) [µg/mL] | Synergy MIC (KLPN 8852 [7]; [10]) [µg/mL] | Synergy MIC (KLPN 24076 [8]; [10]) [µg/mL] | MIC (KLPN 8852 [1]) [µg/mL] | MIC (ACBA 1010 [2]) [µg/mL] | MIC (KLPN 27025 [3]) [µg/mL] | MIC (KLPN 24076 [4]) [µg/mL] | Synergy MIC (ACBA 1010 [5]; [9]) [µg/mL] | Synergy MIC (ACBA 1010 [5]; [11]) [µg/mL] | Synergy MIC (KLPN 27025 [6]; [9]) [µg/mL] | Synergy MIC (KLPN 27025 [6]; [11]) [µg/mL] | Synergy MIC (KLPN 8852 [7]; [9]) [µg/mL] | Synergy MIC (KLPN 8852 [7]; [11]) [µg/mL] | Synergy MIC (KLPN 24076 [8]; [9]) [µg/mL] | Synergy MIC (KLPN 24076 [8]; [11]) [µg/mL] | MIC (ACBA 1010 [5]) [µg/mL] | MIC (KLPN 27025 [6]) [µg/mL] | MIC (KLPN 8852 [7]) [µg/mL] | MIC (KLPN 24076 [8]) [µg/mL] | also measured
1 | NCC[C@H](O)C(=O)N[C@@H]1C[C@H](N)[C@@H](O[C@H]2O[C@H](CN)[C@@H](O)[C@H](O)[C@H]2O)[C@H](O)[C@H]1O[C@H]1O[C@H](CO)[C@@H](O)[C@H](N)[C@H]1O [Amikacin, amikacin] | – | – | – | – | 6.25 | 1.56 | 0.78 | 1.56 | – | – | – | – | – | – | – | – | – | – | – | – | –
2 | C[C@@H](O)[C@H]1C(=O)N2C(C(=O)O)=C(S[C@@H]3CN[C@H](CNS(N)(=O)=O)C3)[C@H](C)[C@H]12 [Doripenem, doripenem] | – | – | – | – | > 50 | 0.195 | 25 | 25 | 0.007813 | – | 0.007813 | – | 0.125 | – | 1 | – | < 0.0975 | 25 | > 50 | 25 | –
3 | C[C@@H](O)[C@H]1C(=O)N2C(C(=O)O)=C(S[C@@H]3CN[C@H](C(=O)N(C)C)C3)[C@H](C)[C@H]12 [Meropenem, meropenem] | – | – | – | – | > 50 | 1.56 | > 50 | > 50 | – | 0.5 | – | 0.007813 | – | 1 | – | 1 | 1.56 | 50 | > 50 | > 50 | –

Further lines, with some results ahead:

Row | Synergy MIC (ACBA 1010 [5]; [10]) [µg/mL] | Synergy MIC (KLPN 27025 [6]; [10]) [µg/mL] | Synergy MIC (KLPN 8852 [7]; [10]) [µg/mL] | Synergy MIC (KLPN 24076 [8]; [10]) [µg/mL] | Structure (SMILES) | MIC (KLPN 8852 [1]) [µg/mL] | MIC (ACBA 1010 [2]) [µg/mL] | MIC (KLPN 27025 [3]) [µg/mL] | MIC (KLPN 24076 [4]) [µg/mL] | Synergy MIC (ACBA 1010 [5]; [9]) [µg/mL] | Synergy MIC (ACBA 1010 [5]; [11]) [µg/mL] | Synergy MIC (KLPN 27025 [6]; [9]) [µg/mL] | Synergy MIC (KLPN 27025 [6]; [11]) [µg/mL] | Synergy MIC (KLPN 8852 [7]; [9]) [µg/mL] | Synergy MIC (KLPN 8852 [7]; [11]) [µg/mL] | Synergy MIC (KLPN 24076 [8]; [9]) [µg/mL] | Synergy MIC (KLPN 24076 [8]; [11]) [µg/mL] | MIC (ACBA 1010 [5]) [µg/mL] | MIC (KLPN 27025 [6]) [µg/mL] | MIC (KLPN 8852 [7]) [µg/mL] | MIC (KLPN 24076 [8]) [µg/mL] | also measured
4 | 1 | 1 | 0.5 | 1 | CC(C)[C@H](NC(=O)[C@H](CCCCN)NC(=O)[C@H](CCCNC(=N)N)NC(=O)CNC(=O)[C@@H](N)CCCNC(=N)N)C(=O)N[C@H](C(=O)N[C@@H](CCCNC(=N)N)C(=O)N[C@@H](CCCNC(=N)N)C(=O)NCCCC[C@H](NC(=O)[C@H](CCCNC(=N)N)NC(=O)[C@H](CCCNC(=N)N)NC(=O)[C@@H](NC(=O)[C@@H](NC(=O)[C@H](CCCCN)NC(=O)[C@H](CCCNC(=N)N)NC(=O)CNC(=O)[C@@H](N)CCCNC(=N)N)C(C)C)C(C)C)C(=O)N[C@@H](CCCCN)C(=O)O)C(C)C [B2088, [RGRKVVRR)2KK]] (I: H-RGRKVVRRKK-OH / II: H-RGRKVVRR; amide I:9-II:C; N-terminus and C-terminus assumed) | – | – | – | – | 0.0625 | 1 | 0.01562 | 0.0625 | 0.25 | 1 | 1 | 1 | – | – | – | – | Monotherapy MIC (ACBA 1010 [5]): 6.25 µg/mL; Monotherapy MIC (KLPN 27025 [6]): 6.25 µg/mL; Monotherapy MIC (KLPN 8852 [7]): 25 µg/mL; Monotherapy MIC (KLPN 24076 [8]): 6.25 µg/mL
5 | 1 | 1 | 0.5 | 1 | C[C@@H](O)[C@H]1C(=O)N2C(C(=O)O)=C(SCCN=CN)C[C@H]12 [Imipenem, imipenem] | > 50 | 25 | > 50 | > 50 | – | – | – | – | – | – | – | – | 12.5 | > 50 | > 50 | > 50 | –

Source: patent US20220133699A1, “Antibacterial Compositions” (Singapore Eye Research Institute, priority 2019, published 2022)
